Test results reported in the supplement of paper PMC10307832.

Tests used:
Assay in all cases: relative viability (nuclei count vs DMSO), 5 days (fraction); higher = more cells survive
[1] = test system: NCI-H2023
Method in brief: (§1)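 One day after seeding in 1536-well plates, lung cancer cell lines were dosed by pin tool. Dosing was either single-drug or a fixed anchor-drug dose plus five library-drug doses (not always all listed) in √10 steps. After 5 days, nuclei were stained in one fix-and-stain step and counted on 4× images, and relative viability is the nuclei count of treated wells over that of vehicle wells, given as the median of duplicate plates.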

[2] = test system: NCI-H2085
Method in brief: as §1

[3] = test system: SK-LU-1
Method in brief: as §1

[4] = test system: PC-14
Method in brief: as §1

[5] = test system: LCLC-97TM1
Method in brief: as §1

[6] = test system: NCI-H2342
Method in brief: as §1

[7] = test system: NCI-H2009
Method in brief: as §1

[8] = test system: EPLC-272H
Method in brief: as §1

[9] = test system: H3255
Method in brief: as §1

[10] = test system: LXF-289
Method in brief: as §1

[11] = test system: NCI-H727
Method in brief: as §1

[12] = test system: NCI-H1650
Method in brief: as §1

[13] = test system: HOP-62
Method in brief: as §1

[14] = test system: NCI-H2347
Method in brief: as §1

[15] = test system: NCI-H2126
Method in brief: as §1

[16] = test system: NCI-H322M
Method in brief: as §1

[17] = test system: NCI-H1915
Method in brief: as §1

[18] = test system: SW 1573
Method in brief: as §1

[19] = test system: EMC-BAC-2
Method in brief: as §1

[20] = test system: NCI-H647
Method in brief: as §1

[21] = test system: NCI-H1993
Method in brief: as §1

[22] = test system: NCI-H661
Method in brief: as §1

With CC1(C)CCC(c2ccc(Cl)cc2)=C(CN2CCN(c3ccc(C(=O)NS(=O)(=O)c4ccc(N[C@H](CCN5CCOCC5)CSc5ccccc5)c(S(=O)(=O)C(F)(F)F)c4)cc3)CC2)C1 [Navitoclax] + CC(=O)c1c(C)c2cnc(Nc3ccc(N4CCNCC4)cn3)nc2n(C2CCCC2)c1=O [Palbociclib] (partner 0.5 µM) the relative viability ([1]; first compound 0.005 µM) was 0.421, the relative viability ([1]; first compound 0.01581 µM) was 0.427 and the relative viability ([1]; first compound 0.05 µM) was 0.384. It also gave a relative viability ([1]; first compound 0.1581 µM) of 0.401, a relative viability ([1]; first compound 0.5 µM) of 0.439 and a relative viability ([2]; first compound 0.005 µM) of 0.45. For the same compound, the relative viability ([2]; first compound 0.01581 µM) was 0.456, the relative viability ([2]; first compound 0.05 µM) was 0.379 and the relative viability ([2]; first compound 0.1581 µM) was 0.482. The relative viability ([2]; first compound 0.5 µM) was 0.502, the relative viability ([3]; first compound 0.005 µM) was 0.396 and the relative viability ([3]; first compound 0.01581 µM) was 0.508. The relative viability ([3]; first compound 0.05 µM) was 0.337, the relative viability ([3]; first compound 0.1581 µM) was 0.384 and the relative viability ([3]; first compound 0.5 µM) was 0.414. The relative viability ([4]; first compound 0.005 µM) was 0.537, the relative viability ([4]; first compound 0.01581 µM) was 0.466 and the relative viability ([4]; first compound 0.05 µM) was 0.607. For the same compound, the relative viability ([4]; first compound 0.1581 µM) was 0.528, the relative viability ([4]; first compound 0.5 µM) was 0.509 and the relative viability ([5]; first compound 0.005 µM) was 0.239. For the same compound, the relative viability ([5]; first compound 0.01581 µM) was 0.215, the relative viability ([5]; first compound 0.05 µM) was 0.166 and the relative viability ([5]; first compound 0.1581 µM) was 0.203. It also gave a relative viability ([5]; first compound 0.5 µM) of 0.241, a relative viability ([6]; first compound 0.005 µM) of 0.611 and a relative viability ([6]; first compound 0.01581 µM) of 0.531. For the same compound, the relative viability ([6]; first compound 0.05 µM) was 0.541, the relative viability ([6]; first compound 0.1581 µM) was 0.477 and the relative viability ([6]; first compound 0.5 µM) was 0.629. For the same compound, the relative viability ([7]; first compound 0.005 µM) was 0.186, the relative viability ([7]; first compound 0.01581 µM) was 0.302 and the relative viability ([7]; first compound 0.05 µM) was 0.202. For the same compound, the relative viability ([7]; first compound 0.1581 µM) was 0.255, the relative viability ([7]; first compound 0.5 µM) was 0.222 and the relative viability ([8]; first compound 0.005 µM) was 0.325. The relative viability ([8]; first compound 0.05 µM) was 0.324, the relative viability ([8]; first compound 0.1581 µM) was 0.31 and the relative viability ([8]; first compound 0.5 µM) was 0.297. It also gave a relative viability ([9]; first compound 0.005 µM) of 0.304, a relative viability ([9]; first compound 0.01581 µM) of 0.329 and a relative viability ([9]; first compound 0.05 µM) of 0.3. The relative viability ([9]; first compound 0.1581 µM) was 0.312, the relative viability ([9]; first compound 0.5 µM) was 0.316 and the relative viability ([10]; first compound 0.005 µM) was 0.589. The relative viability ([10]; first compound 0.01581 µM) was 0.658, the relative viability ([10]; first compound 0.05 µM) was 0.547 and the relative viability ([10]; first compound 0.1581 µM) was 0.606. It also gave a relative viability ([10]; first compound 0.5 µM) of 0.627, a relative viability ([11]; first compound 0.005 µM) of 0.625 and a relative viability ([11]; first compound 0.01581 µM) of 0.602. It also gave a relative viability ([11]; first compound 0.05 µM) of 0.67, a relative viability ([11]; first compound 0.1581 µM) of 0.584 and a relative viability ([11]; first compound 0.5 µM) of 0.527. The relative viability ([12]; first compound 0.005 µM) was 0.385, the relative viability ([12]; first compound 0.01581 µM) was 0.456 and the relative viability ([12]; first compound 0.05 µM) was 0.315. For the same compound, the relative viability ([12]; first compound 0.1581 µM) was 0.346, the relative viability ([12]; first compound 0.5 µM) was 0.316 and the relative viability ([13]; first compound 0.005 µM) was 0.449. The relative viability ([13]; first compound 0.01581 µM) was 0.442, the relative viability ([13]; first compound 0.05 µM) was 0.429 and the relative viability ([13]; first compound 0.1581 µM) was 0.391. For the same compound, the relative viability ([13]; first compound 0.5 µM) was 0.448, the relative viability ([14]; first compound 0.005 µM) was 0.468 and the relative viability ([14]; first compound 0.01581 µM) was 0.48. For the same compound, the relative viability ([14]; first compound 0.05 µM) was 0.396, the relative viability ([14]; first compound 0.1581 µM) was 0.439 and the relative viability ([14]; first compound 0.5 µM) was 0.377. The relative viability ([15]; first compound 0.005 µM) was 0.35, the relative viability ([15]; first compound 0.01581 µM) was 0.355 and the relative viability ([15]; first compound 0.05 µM) was 0.342. The relative viability ([15]; first compound 0.1581 µM) was 0.303, the relative viability ([15]; first compound 0.5 µM) was 0.366 and the relative viability ([16]; first compound 0.005 µM) was 0.522. It also gave a relative viability ([16]; first compound 0.01581 µM) of 0.534, a relative viability ([16]; first compound 0.05 µM) of 0.476 and a relative viability ([16]; first compound 0.1581 µM) of 0.479. It also gave a relative viability ([16]; first compound 0.5 µM) of 0.499, a relative viability ([17]; first compound 0.005 µM) of 0.585 and a relative viability ([17]; first compound 0.01581 µM) of 0.544. The relative viability ([17]; first compound 0.05 µM) was 0.499, the relative viability ([17]; first compound 0.1581 µM) was 0.507 and the relative viability ([17]; first compound 0.5 µM) was 0.509. The relative viability ([18]; first compound 0.005 µM) was 0.417, the relative viability ([18]; first compound 0.01581 µM) was 0.41 and the relative viability ([18]; first compound 0.05 µM) was 0.448. The relative viability ([18]; first compound 0.1581 µM) was 0.399, the relative viability ([18]; first compound 0.5 µM) was 0.38 and the relative viability ([19]; first compound 0.005 µM) was 0.522. The relative viability ([19]; first compound 0.01581 µM) was 0.533, the relative viability ([19]; first compound 0.05 µM) was 0.532 and the relative viability ([19]; first compound 0.1581 µM) was 0.5. For the same compound, the relative viability ([19]; first compound 0.5 µM) was 0.507, the relative viability ([20]; first compound 0.005 µM) was 0.336 and the relative viability ([20]; first compound 0.01581 µM) was 0.359. For the same compound, the relative viability ([20]; first compound 0.05 µM) was 0.24, the relative viability ([20]; first compound 0.1581 µM) was 0.414 and the relative viability ([20]; first compound 0.5 µM) was 0.344. The relative viability ([21]; first compound 0.005 µM) was 0.7, the relative viability ([21]; first compound 0.01581 µM) was 0.744 and the relative viability ([21]; first compound 0.05 µM) was 0.593. It also gave a relative viability ([21]; first compound 0.1581 µM) of 0.749, a relative viability ([21]; first compound 0.5 µM) of 0.653 and a relative viability ([22]; first compound 0.005 µM) of 0.426. The relative viability ([22]; first compound 0.01581 µM) was 0.451, the relative viability ([22]; first compound 0.05 µM) was 0.387 and the relative viability ([22]; first compound 0.1581 µM) was 0.435. For the same compound, the relative viability ([22]; first compound 0.5 µM) was 0.384.
